# pIC50: −log10 of the molar value. “Also recorded” adds a separate entry of the source.
# Key:
# p-Akt = test: western blot of p-Akt in SK-Hep-1 cells; format: cell-based; conditions: for p-Akt level: SK-Hep-1 cells, 5 μM, 30 hours (FIG. 4A)
# Description: (§1) Next, compounds […], 19, and 22 were used to explore whether downregulation of CIP2A lead to suppression of p-Akt. FIG. 4A is the western blot analysis of the effect of the compounds 4, 19, and 22 on phosphorylation of Akt, PARP and Actin. In this western blot analysis, SK-Hep-1 cells were respectively treated with compounds 4, 19, and 22 at a concentration of 5 μM for 30 hours. […] That is, compound 19 and 22 can substantially increase apoptotic cell death to inhibit cancer growth.
# In other words, in the present of okadaic acid, the activation of PP2A by compound 19-incuced CIP2A inactivation is blocked.
# CIP2A [1] = test: western blot of CIP2A expression in PLC/PRF/5 cells; format: cell-based; conditions: 10 μM, 48 hours (FIG. 8)
# Description: PLC/PRF/5 cells were exposed to compounds 88, 95 and 96 at various doses (5 and 10 μM) for 48 hours. Total lysates were subjected to CIP2A protein analysis by western blot. Actin was used as a loading control.
# PLC5 cell lines = test: MTT assay, growth inhibition of PLC5 cells; format: cell-based
# Description: (§2) The effect of individual test compounds on cell viability was assessed by using the MTT in 6 replicates. Sk-Hep-1 cells were seeded and incubated in 96-well, flat-bottomed plates for 24 hours, and were exposed to various concentrations of test compounds dissolved in DMSO (final concentration, 0.1%) for 48 hours. Controls received DMSO vehicle at a concentration equal to that in drug-treated cells. The medium was removed, replaced by 200 μL of 0.5 mg/mL MTT in 10% fetal bovine serum containing DMEM (Dulbecco's Modified Eagle Medium), and cells were incubated in the carbon dioxide incubator at 37° C. for 2 hours. Supernatants were removed from the wells and the reduced MTT dye was solubilized in 100 μL/well DMSO. Absorbance at 570 nm was determined on a plate reader.
# Next, compounds 19, and 34-36 were screened against a panel of Hep3B cell lines for growth-inhibitory activities. […] Compounds 87-90, 95 and 96 were screened against a panel of PLC5 cell lines for growth-inhibitory activities.
# [2] = system: SK-Hep-1 cell lines (a hepatocellular carcinoma (HCC) cell); test: MTT assay, growth inhibition of SK-Hep-1 cells; format: cell-based; conditions: for pIC50: SK-Hep-1 cells, 48 hours
# Description: MTT assay was used to measure growth inhibition. […] MTT (3-(4,5-dimethylthiazol-2-yl)-2,5-diphenyl tetrazolium bromide) assay was performed as follow.
# as §2
# The SK-Hep1 cells were then analyzed with western blot assay and MTT assay.
# PARP = test: western blot of PARP cleavage in SK-Hep-1 cells; format: cell-based; conditions: 5 μM, 30 hours (FIG. 4A)
# Description: as §1
# CIP2A [3] = test: western blot of CIP2A expression in SK-Hep1 cells; format: cell-based; conditions: SK-Hep-1 cells, 5 μM, 30 hours (FIG. 4A)
# Description: Accordingly, the pyrimidine and quinazoline derivatives above were screened by using western blot analysis for expression of CIP2A in SK-Hep1 cells. Before the western blot analysis, the SK-Hep-1 cells were maintained in DMEM supplemented with 10% FBS, 100 units/mL penicillin G, 100 μg/mL streptomycin sulfate and 25 μg/mL amphotericin B in a 37° C. humidified incubator in an atmosphere of 5% CO2 in air. In this western blot analysis, SK-Hep1 cells were respectively treated with compounds 1-24 at a concentration of 20 μM for 24 hours. In FIG. 2, the mono-substituted pyrimidine derivatives (compounds 1-5) have no appreciable change in CIP2A expression.
# Cell viability, measured by MTT assay, and CIP2A expressions, analyzed by western blot, in response to compound 19 or erlotinib treatment in SK-Hep1 cell line were analyzed. SK-Hep-1 cells were treated with erlotinib and compound 19 at 2.5 and 5 μM for 24 h, respectively. The SK-Hep1 cells were then analyzed with western blot assay and MTT assay.
# as §1
# EGFR [4] = target: T1, EGFR (Homo sapiens, UniProt P00533, DEL746-750); test: western blot of EGFR phosphorylation in PC9 cells; format: cell-based
# T1 construct: endogenous in cells; host or cells: PC9 cells
# T1 sequence (P00533 with tags, fused parts or gaps DEL746-750): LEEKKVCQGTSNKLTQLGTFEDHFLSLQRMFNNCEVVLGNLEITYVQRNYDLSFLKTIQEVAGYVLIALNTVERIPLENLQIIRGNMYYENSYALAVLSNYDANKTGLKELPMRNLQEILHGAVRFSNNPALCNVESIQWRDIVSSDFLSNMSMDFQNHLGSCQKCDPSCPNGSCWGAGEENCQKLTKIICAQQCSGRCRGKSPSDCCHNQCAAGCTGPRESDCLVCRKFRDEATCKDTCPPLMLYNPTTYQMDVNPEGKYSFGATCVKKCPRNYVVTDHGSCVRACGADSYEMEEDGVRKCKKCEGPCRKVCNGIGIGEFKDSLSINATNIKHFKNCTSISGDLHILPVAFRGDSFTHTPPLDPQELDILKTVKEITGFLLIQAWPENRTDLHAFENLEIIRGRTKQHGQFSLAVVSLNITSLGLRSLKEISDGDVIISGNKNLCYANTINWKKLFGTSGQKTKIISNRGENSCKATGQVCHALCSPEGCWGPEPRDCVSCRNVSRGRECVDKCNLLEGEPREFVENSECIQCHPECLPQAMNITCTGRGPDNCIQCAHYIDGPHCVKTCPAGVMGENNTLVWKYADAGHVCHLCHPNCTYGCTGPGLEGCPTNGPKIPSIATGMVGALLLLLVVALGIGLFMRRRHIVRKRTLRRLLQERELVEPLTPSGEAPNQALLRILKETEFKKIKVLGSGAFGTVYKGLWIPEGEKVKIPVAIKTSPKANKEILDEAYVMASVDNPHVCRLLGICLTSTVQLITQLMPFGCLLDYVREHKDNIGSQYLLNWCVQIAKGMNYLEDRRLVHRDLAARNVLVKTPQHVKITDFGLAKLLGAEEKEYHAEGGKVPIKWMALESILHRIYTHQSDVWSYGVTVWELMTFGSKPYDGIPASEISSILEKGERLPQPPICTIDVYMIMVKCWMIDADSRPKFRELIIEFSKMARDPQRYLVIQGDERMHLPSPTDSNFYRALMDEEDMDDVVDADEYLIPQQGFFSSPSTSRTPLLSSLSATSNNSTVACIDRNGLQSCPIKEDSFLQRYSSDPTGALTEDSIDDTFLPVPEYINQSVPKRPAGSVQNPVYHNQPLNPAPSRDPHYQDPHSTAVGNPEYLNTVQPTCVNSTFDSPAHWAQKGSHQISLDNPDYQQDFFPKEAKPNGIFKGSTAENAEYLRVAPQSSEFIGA
# Description: 40 μg/per lane of cell lysates were analyzed by western blot. The antibodies of actin, EGFR, and p-EGFR were from Cell Signaling (Danvers, Mass.). In FIGS. 1A-1B, actin lines are used to show an internal standard for the loading control in this western blot.
# Huh-7 xenograft tumor = Huh-7 xenograft tumor growth in nude mice; conditions: erlotinib 50 mg/kg/day
# Description: (§3) The mice were housed in groups and maintained under standard laboratory conditions on a 12-hour light-dark cycle. They were given access to sterilized food and water ad libitum. All experimental procedures using these mice were performed in accordance with protocols approved by the Institutional Laboratory Animal Care and Use Committee of National Taiwan University. Each mouse was inoculated s.c. in the dorsal flank with 1×10^6 HCC cells suspended in 0.1 ml of serum-free medium containing 50% Matrigel (BD Biosciences, Bedford, Mass.). […] Controls received vehicle.
# (§4) Tumor growth data points are reported as mean tumor volume±SE.
# EGFR [5] = target: EGFR (Homo sapiens, UniProt P00533); test: western blot of EGFR phosphorylation in H358 cells; conditions: 1 and 5 μM, 24 hours (FIG. 1C)
# Chain of EGFR (Homo sapiens, UniProt P00533) (P00533 25-1210): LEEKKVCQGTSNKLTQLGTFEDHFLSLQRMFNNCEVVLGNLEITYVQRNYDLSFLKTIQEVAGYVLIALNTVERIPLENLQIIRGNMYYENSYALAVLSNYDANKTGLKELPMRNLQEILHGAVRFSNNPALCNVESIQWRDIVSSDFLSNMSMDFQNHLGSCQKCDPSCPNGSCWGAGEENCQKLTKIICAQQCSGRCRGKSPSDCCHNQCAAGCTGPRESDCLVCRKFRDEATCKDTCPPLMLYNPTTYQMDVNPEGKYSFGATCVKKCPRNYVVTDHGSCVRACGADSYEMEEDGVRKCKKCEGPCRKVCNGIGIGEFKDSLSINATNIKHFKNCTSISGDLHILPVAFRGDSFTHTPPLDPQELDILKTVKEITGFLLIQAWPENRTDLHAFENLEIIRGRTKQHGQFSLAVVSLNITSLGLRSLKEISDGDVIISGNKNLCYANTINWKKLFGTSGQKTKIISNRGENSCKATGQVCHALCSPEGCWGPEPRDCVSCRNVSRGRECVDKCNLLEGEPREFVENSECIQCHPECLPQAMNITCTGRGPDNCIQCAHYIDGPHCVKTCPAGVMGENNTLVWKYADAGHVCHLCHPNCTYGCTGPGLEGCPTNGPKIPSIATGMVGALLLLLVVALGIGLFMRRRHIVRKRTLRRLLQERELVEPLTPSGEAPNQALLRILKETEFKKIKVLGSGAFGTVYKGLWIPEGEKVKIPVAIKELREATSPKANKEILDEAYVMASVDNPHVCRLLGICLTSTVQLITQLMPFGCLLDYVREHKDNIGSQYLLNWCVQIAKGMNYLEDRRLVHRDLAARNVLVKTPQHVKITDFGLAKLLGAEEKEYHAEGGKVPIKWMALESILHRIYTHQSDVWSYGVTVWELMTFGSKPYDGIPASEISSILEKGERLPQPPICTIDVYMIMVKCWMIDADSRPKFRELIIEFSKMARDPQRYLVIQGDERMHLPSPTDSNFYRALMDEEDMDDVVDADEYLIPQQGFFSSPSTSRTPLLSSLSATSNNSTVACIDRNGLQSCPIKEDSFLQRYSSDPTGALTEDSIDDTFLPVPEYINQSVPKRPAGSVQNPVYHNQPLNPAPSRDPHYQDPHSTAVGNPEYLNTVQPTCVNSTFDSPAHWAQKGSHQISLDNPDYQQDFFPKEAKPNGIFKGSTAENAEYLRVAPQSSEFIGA
# PLC5 xenograft tumor = PLC5 xenograft tumor growth in nude mice; conditions: erlotinib 50 mg/kg/day; for effect on PLC5 tumor growth, in words: p.o. daily for 3 weeks, compounds 20 mg/kg/day (FIG. 6A-6B)
# Description: as §3, §4
# SK-Hep-1 cells = test: apoptotic cell death by flow cytometry (sub-G1) and cell death detection ELISA; format: cell-based; conditions: 2.5 and 5 μM, 24 h (FIG. 4B-4C)
# Description: FIG. 4B is flow cytometry analysis of cell death induced by compounds 4, 19, and 22 at 5 μM, after 24 h of treatment in SK-Hep-1 cells. The apoptotic cells were assessed by flow cytometry (sub-G1). After Sk-Hep-1 cells were treated with compounds 4, 19, and 22, Sk-Hep-1 cells were trypsinized, collected by centrifugation and resuspended in PBS. After centrifugation, the cells were washed in PBS and resuspended in […] (PI) staining solution. Specimens were incubated in the dark for 30 min at 37° C. and then analyzed with an EPICS Profile II flow cytometer (Coulter Corp., Hialeah, Fla.). All experiments were performed in triplicate
# FIG. 4C is ELISA analysis of cell death to analyze effects of compounds 4, 19, and 22 on DNA fragmentation in SK-Hep-1 cells. The effect of compounds 4, 19 and 22 on cell viability was assessed by a cell death detection ELISA kit (Roche Applied Science, Mannheim, Germany). SK-Hep-1 cells were treated with compounds 4 and 19 at 22 at 2.5 and 5 μM for 24 h. The cells were collected and assayed according to the standard protocol provided by the manufacturer.
# [6] = p.o. daily, after 21 days of treatment, compounds 8 and 19 20 mg/kg/day
Compound,"pIC50 ([2]; Homo sapiens, SK-HEP1, 48 h)",inhibition of CIP2A expression (CIP2A [1]),p-Akt level (p-Akt),PARP cleavage (PARP),inhibiting CIP2A expression (CIP2A [3]),"effect on PLC5 tumor growth, in words (PLC5 xenograft tumor)",other results
"C=C1[C@@H](O)[C@@H]2O[C@]3(CC[C@H](/C=C/[C@@H](C)[C@@H]4CC(C)=C[C@@]5(O[C@H](C[C@@](C)(O)C(=O)O)CC[C@H]5O)O4)O3)CC[C@H]2O[C@@H]1[C@@H](O)C[C@H](C)[C@H]1O[C@@]2(CCCCO2)CC[C@H]1C [okadaic acid, reference compound]",–,–,–,–,–,–,p-Akt level in compound 19 treated cells (p-Akt; SK-Hep-1 cells treated with compound 19 (FIG. 5B)): reversed p-Akt level
"C#Cc1cccc(Nc2nc(Nc3ccc(Oc4ccc(Cl)c(Cl)c4)cc3)nc3cc(OC)c(OC)cc23)c1 [Compound 95, N^2-(4-(3,4-dichlorophenoxyl)phenyl)-N^4-(3-ethynylphenyl)-6,7-dimethoxyquinazoline-2,4-diamine]",–,high degree of repression of CIP2A,–,–,–,–,pIC50 (PLC5 cell lines; PLC5 cells): 6.02
"C#Cc1cccc(Nc2nc(Nc3ccc(Cl)c(Oc4ccc(C#N)c(Cl)c4)c3)nc3cc(OC)c(OC)cc23)c1 [Compound 88, 2-chloro-4-(2-chloro-5-((4-((3-ethynylphenyl)amino)-6,7-dimethoxyquinazolin-2-yl)amino)phenoxy)benzonitrile]",–,high degree of repression of CIP2A,–,–,–,–,"pIC50 (PLC5 cell lines; PLC5, PLC5 cells): 4.89"
"C#Cc1cccc(Nc2nc(NCc3ccccc3)nc3cc(OC)c(OC)cc23)c1 [Compound 22, N^2-Benzyl-N^4-(3-ethynylphenyl)-6,7-dimethoxy quinazoline-2,4-diamine]",–,–,reducing p-Akt level; also recorded: reduced Akt phosphorylation,inducing PARP cleavage,inhibiting CIP2A expression; also recorded: most potent inhibition of CIP2A expression,significantly reducing the growth of tumor,"pIC50 [2]: 5.55; cell apoptosis (sub-G1 flow cytometry, DNA fragmentation ELISA) (SK-Hep-1 cells): induced cell apoptosis; EGFR phosphorylation inhibition (western blot) (EGFR [4]; PC9 cells, 2 μM, 24 h (FIG. 3A)): no inhibitory effect on EGFR kinase"

# Second part, led by results:
"pIC50 ([2]; Homo sapiens, SK-HEP1, 48 h)",Compound,inhibition of CIP2A expression (CIP2A [1]),p-Akt level (p-Akt),PARP cleavage (PARP),inhibiting CIP2A expression (CIP2A [3]),"effect on PLC5 tumor growth, in words (PLC5 xenograft tumor)",other results
< 4.40,"Clc1nccc(Nc2ccc(Oc3ccccc3)cc2)n1 [Compound 4, 2-Chloro-N-(4-phenoxyphenyl)pyrimidin-4-amine]",–,no activity,no activity,no activity,–,"growth-inhibitory activity (MTT), in words ([2]; SK-Hep-1 (HCC) cells): no activity in either assay"
> 5.00,"C#Cc1cccc(Nc2nc(Cl)nc3cc(OC)c(OC)cc23)c1 [Compound 8, 2-Chloro-N-(3-ethynylphenyl)-6,7-dimethoxyquinazoline-4-amine]",–,–,–,–,significantly reduced the growth of tumor,"EGFR kinase inhibition (p-EGFR western blot) (EGFR [4]; PC9 cells, 0.5, 1, 2, 4, and 8 μM, 24 hours (FIG. 1A-1B)): devoid of EGFR kinase inhibition; effect on Huh-7 tumor growth, in words (Huh-7 xenograft tumor; p.o. daily for 3 weeks, compounds 20 mg/kg/day (FIG. 7A-7B)): better inhibitory effect on Huh-7 tumors than erlotinib; tumor inhibition, Huh7 cell (Huh-7 xenograft tumor; [6]): 40.3%; EGFR phosphorylation inhibition (western blot) (EGFR [5]): devoid of EGFR kinase inhibition; tumor inhibition, PLC5 cell (PLC5 xenograft tumor; [6]): 45.7%"

# Source: patent US9394261B2, “Aryl amine substituted pyrimidine and quinazoline and their use as anticancer drugs” (National Yang-Ming University, priority 2012, dated 2016)
